Consider two compounds from ChEMBL document CHEMBL1144330, “Novel pyrazinone mono-amides as potent and reversible caspase-3 inhibitors” (Bioorg Med Chem Lett, 2005).

Assay [1] can be described thus: Inhibitory concentration against etoposide induced apoptosis in mice cerebellar granule neurons. The settings on record: Mus musculus. It counts as functional.
The next assay deals with T1, Caspase-1 (Homo sapiens, UniProt P29466).
T1 sequence (P29466 whole entry): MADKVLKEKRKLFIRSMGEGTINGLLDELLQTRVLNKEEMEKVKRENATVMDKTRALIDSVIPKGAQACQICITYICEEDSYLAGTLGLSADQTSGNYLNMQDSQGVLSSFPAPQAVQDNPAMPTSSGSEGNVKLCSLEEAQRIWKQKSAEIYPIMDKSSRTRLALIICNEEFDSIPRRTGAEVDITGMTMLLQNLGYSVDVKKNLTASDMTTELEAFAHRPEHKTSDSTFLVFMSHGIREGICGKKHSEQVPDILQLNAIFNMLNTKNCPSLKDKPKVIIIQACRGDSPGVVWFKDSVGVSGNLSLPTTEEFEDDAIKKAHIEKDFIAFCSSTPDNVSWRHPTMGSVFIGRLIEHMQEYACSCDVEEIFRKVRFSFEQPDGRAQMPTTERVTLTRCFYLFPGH
As to the kind of experiment: Inhibitory concentration against recombinant human caspase-1 in neuronal precursor (NT2) cells.

The target of another assay is T2, Caspase-3 (Homo sapiens, UniProt P42574).
T2 sequence (P42574 whole entry): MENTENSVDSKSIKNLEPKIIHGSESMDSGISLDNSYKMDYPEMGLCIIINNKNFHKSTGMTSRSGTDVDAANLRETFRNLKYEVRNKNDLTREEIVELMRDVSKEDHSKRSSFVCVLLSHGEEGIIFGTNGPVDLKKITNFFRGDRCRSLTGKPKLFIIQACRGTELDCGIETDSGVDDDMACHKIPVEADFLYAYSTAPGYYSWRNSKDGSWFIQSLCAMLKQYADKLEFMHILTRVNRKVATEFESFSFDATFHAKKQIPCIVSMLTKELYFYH
As to the kind of experiment: Inhibitory concentration against recombinant human caspase-3 in neuronal precursor (NT2) cells.

The next assay concerns the target T3, Caspase-7 (Homo sapiens, UniProt P55210).
T3 sequence (P55210 whole entry): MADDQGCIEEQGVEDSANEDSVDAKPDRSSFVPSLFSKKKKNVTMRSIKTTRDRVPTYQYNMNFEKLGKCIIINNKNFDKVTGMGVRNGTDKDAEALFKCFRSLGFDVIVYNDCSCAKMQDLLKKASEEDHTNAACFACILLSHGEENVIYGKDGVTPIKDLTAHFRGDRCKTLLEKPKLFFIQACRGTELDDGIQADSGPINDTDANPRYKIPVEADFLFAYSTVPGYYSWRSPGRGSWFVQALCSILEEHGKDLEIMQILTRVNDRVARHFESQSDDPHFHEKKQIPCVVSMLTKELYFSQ
As to the kind of experiment: Inhibitory concentration against recombinant human caspase-7 […].

A further assay deals with Caspase-8 (Homo sapiens, UniProt Q14790). As to the kind of experiment: Inhibitory concentration against recombinant human caspase-8 […].
Caspase-8, sequence (Q14790 217-374 limits assumed): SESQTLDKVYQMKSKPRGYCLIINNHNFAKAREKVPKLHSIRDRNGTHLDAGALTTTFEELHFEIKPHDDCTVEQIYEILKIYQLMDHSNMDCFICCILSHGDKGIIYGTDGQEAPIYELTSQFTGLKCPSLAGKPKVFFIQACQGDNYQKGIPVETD
Caspase-8, sequence (Q14790 385-479 limits assumed): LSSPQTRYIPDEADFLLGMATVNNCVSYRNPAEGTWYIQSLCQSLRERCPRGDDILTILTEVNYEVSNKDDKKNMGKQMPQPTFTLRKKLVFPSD
Assay [2] has as its target T4, Caspase-2 (Homo sapiens, UniProt P42575).
T4 sequence (P42575 whole entry): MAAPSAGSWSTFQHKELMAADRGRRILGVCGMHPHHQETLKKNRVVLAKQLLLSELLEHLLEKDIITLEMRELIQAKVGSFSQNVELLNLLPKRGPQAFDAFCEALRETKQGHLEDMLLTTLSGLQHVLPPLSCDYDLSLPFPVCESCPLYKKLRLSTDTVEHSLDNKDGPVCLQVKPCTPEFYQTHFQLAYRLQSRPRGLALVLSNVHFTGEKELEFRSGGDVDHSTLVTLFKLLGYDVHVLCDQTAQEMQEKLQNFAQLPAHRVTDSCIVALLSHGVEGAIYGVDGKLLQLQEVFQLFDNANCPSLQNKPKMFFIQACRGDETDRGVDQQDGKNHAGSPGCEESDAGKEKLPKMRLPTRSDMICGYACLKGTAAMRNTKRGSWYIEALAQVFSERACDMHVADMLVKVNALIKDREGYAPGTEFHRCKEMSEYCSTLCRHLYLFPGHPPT
As to the kind of experiment: Inhibitory concentration against casp-2 in neuronal precursor (NT2) cells.

Assay [3] addresses T5, Caspase-10 (Homo sapiens, UniProt Q92851).
T5 sequence (Q92851 whole entry): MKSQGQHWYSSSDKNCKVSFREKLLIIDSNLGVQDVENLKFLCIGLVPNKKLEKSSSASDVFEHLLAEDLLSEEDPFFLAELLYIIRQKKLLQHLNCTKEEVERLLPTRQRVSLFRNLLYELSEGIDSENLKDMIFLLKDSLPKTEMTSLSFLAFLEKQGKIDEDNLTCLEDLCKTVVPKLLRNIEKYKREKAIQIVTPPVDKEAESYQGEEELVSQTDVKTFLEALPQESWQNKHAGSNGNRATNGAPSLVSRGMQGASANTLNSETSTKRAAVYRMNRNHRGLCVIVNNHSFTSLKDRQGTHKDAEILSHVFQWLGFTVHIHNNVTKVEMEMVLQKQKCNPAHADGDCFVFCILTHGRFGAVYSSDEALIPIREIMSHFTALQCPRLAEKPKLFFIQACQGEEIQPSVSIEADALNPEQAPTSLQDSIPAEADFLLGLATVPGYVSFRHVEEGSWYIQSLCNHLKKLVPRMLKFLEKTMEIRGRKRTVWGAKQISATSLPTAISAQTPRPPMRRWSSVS
As to the kind of experiment: Inhibitory concentration against casp-10 in neuronal precursor (NT2) cells.

The target in assay [4] is T6, Caspase-4 (Homo sapiens, UniProt P49662).
T6 sequence (P49662 whole entry): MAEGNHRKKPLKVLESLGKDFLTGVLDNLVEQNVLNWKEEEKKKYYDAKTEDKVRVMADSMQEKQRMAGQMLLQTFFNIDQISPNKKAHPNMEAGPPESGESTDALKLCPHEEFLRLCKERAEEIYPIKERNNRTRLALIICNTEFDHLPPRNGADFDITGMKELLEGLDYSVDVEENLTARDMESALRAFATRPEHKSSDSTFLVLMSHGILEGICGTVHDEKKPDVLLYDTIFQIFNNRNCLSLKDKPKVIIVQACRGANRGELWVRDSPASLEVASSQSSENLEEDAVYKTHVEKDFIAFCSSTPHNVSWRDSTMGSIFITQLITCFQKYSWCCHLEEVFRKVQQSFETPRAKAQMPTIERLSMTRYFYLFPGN
As to the kind of experiment: Inhibitory concentration against casp-4 in neuronal precursor (NT2) cells.

In assay [5] the target is T7, Caspase-5 (Homo sapiens, UniProt P51878).
T7 sequence (P51878 whole entry): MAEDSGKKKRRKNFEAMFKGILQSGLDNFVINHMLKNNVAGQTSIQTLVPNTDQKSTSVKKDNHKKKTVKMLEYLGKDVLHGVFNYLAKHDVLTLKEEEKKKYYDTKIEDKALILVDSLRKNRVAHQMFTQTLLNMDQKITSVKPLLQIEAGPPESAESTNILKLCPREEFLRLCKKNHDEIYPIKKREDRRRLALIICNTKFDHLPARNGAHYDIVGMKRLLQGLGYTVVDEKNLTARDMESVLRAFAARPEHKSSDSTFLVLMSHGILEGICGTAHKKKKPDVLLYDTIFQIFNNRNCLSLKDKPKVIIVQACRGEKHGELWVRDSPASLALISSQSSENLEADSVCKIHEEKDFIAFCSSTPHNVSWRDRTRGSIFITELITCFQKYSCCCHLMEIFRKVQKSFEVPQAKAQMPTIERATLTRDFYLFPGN
As to the kind of experiment: Inhibitory concentration against casp-5 in neuronal precursor (NT2) cells.

The target of assay [6] is T8, Caspase-6 (Homo sapiens, UniProt P55212).
T8 sequence (P55212 whole entry): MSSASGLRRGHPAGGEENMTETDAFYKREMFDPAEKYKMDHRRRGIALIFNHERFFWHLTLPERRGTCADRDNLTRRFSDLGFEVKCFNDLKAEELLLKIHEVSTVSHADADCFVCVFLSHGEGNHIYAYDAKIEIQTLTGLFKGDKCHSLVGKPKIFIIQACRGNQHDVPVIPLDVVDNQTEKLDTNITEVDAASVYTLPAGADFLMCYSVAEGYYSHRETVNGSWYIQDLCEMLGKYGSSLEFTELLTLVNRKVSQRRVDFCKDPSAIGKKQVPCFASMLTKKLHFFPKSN
As to the kind of experiment: Inhibitory concentration against casp-6 in neuronal precursor (NT2) cells.

Assay [7] is described as follows: Inhibitory concentration against etoposide induced apoptosis in rat cortical neurons. It counts as functional.
Assay [8] in a line: Inhibitory concentration against cycloheximide induced cell death in human white blood cells in the absence of plasma proteins. It counts as functional, cell-based.
Assay [9] can be described thus: Inhibitory concentration against cycloheximide induced cell death in human white blood cells in the presence of plasma proteins. It counts as functional, cell-based.
For another assay, the system named is NT2. As to the kind of experiment: Inhibitory concentration against camptothecin induced apoptosis in neuronal precursor (NT2) whole cells. The class given is functional, cell-based. As to conditions: Homo sapiens.
For assay [10], the target named is T4, Caspase-2. As to the kind of experiment: Inhibitory concentration against caspase-2 in neuronal precursor (NT2) cells.
Assay [11] has as its target T6, Caspase-4. As to the kind of experiment: Inhibitory concentration against human caspase-4 in neuronal precursor (NT2) cells.
For assay [12], the target named is T7, Caspase-5. As to the kind of experiment: Inhibitory concentration against human caspase-5 in neuronal precursor (NT2) cells.
Assay [13] has as its target T8, Caspase-6. As to the kind of experiment: Inhibitory concentration against caspase-6 in neuronal precursor (NT2) cells.
Assay [14] has as its target T5, Caspase-10. As to the kind of experiment: Inhibitory concentration against caspase-10 in neuronal precursor (NT2) cells.

pIC50, pKi: −log10 of the molar value. Bounds are passed on as bounds.

For orientation: pIC50 means the IC50 on a negative log10 scale, so that one unit is a factor of ten. The pKi is −log10 of the Ki, conventionally taken in molar units.

For the compound `CCCCCN(C)CC(=O)C(CC(=O)O)NC(=O)C(CC)n1cc(C(C)(C)C)nc(NCc2nonc2C)c1=O` (stereo not drawn), the pIC50 was 7.22 in [1]; 6.96 at Caspase-1; 7.05 on Caspase-7; 5.39 at Caspase-8; < 5.00 at Caspase-2 [2]; 4.53 at Caspase-10 [3]. Moreover, the pIC50 against Caspase-4 [4] was 6.30; against Caspase-5 [5], 6.09; on Caspase-6 [6] it was 5.46; in assay [7] it was 7.22; in assay [8], 7.40; in assay [9], 6.15. The same compound gave a pIC50 in the assay on NT2 of 7.57. Besides, the pKi at Caspase-3 was 8.85.
On to `CCCCCCN(C)CC(=O)C(CC(=O)O)NC(=O)C(CC)n1cc(C(C)(C)C)nc(NCc2nonc2C)c1=O` (stereo not drawn), for which the pIC50 in [1] was 7.30; on Caspase-1 it was 7.30; at Caspase-7, 7.89; at Caspase-8, 5.68; on Caspase-2 [10] it was < 5.00; on Caspase-4 [11] it was 6.52. In addition, the pIC50 against Caspase-5 [12] is 6.70; on Caspase-6 [13] it was 5.77; against Caspase-10 [14], 4.75; in assay [7], 7.05; in assay [8], 7.30; in assay [9], 5.92. The compound also gave a pIC50 with NT2 of 7.68. In addition, the pKi on Caspase-3 is 8.30.
